Entries after “also recorded” stand apart in the source; their conditions may differ.
How the values were obtained:
α1β2γ2 GABAA receptors = conditions: heterologously expressed receptors; cited from earlier work
[1] = at even 100-fold higher concentrations than propofol; cited from earlier work
GABAA receptor subunits = experiment: Western blotting of streptavidin-captured GABAA receptor subunits with ligand protection; type: binding, mouse; conditions: AziPm-click (1) 10 μM, protecting ligand 100 μM, UV irradiation; n = 4
Procedure: (§1) Synaptosomes were resuspended to 1 mg of protein/ml in HEPES buffer medium (in mM: 140 NaCl, 5 KCl, 5 NaHCO3, 1.2 NaH2PO4, 1 MgCl2, 10 glucose, and 10 HEPES (pH 7.4)). […] The samples were allowed to equilibrate for 5 min before being transferred to a parafilm-sealed 1-mm path length quartz cuvette. The sample was then irradiated for 20 min at a peak bandwidth of 350 nm (Rayonet RPR-3500 lamp) ∼6 cm from the light source. Non-irradiated samples were left in the dark at ambient temperature (22–25 °C) for 20 min. All remaining procedures were conducted with restricted light exposure.
To 750 μg of photolabeled or control synaptosome samples, 40 μl of 10% SDS and 2 μl of 5 mM DTT in water were added. Samples were then vortexed, heated for 10 min at 65 °C, and then briefly cooled. Final concentrations of 150 μM azide-biotin (Click Chemistry Tools), 2 mM tris(3-hydroxypropyltriazolylmethyl)amine (Sigma), 1 mM ascorbic acid (Sigma), and 1 mM CuSO4·5H2O (Sigma) were added to each sample and vortexed vigorously. The samples were left in the dark at ambient temperature (22–25 °C) for 1 h with mild agitation. Directly to each sample 4× volume chilled methanol, 1.5× chilled chloroform, and 3× chilled double distilled H2O were added. Samples were vortexed vigorously and centrifuged at 1,400 × g for 30 min at 4 °C. […]

[2] = test system: alkylphenol-binding proteins within synaptosomes; experiment: Fluorescent profiling: protection from AziPm-click (1) photolabeling of synaptosomes; design: species or system mouse; conditions: propofol 75–375 μM; ketamine 150–450 μM; triplicate
Procedure: as §1

## CC(C)c1cccc(C(C)C)c1F [fropofol, 2-fluoro-1,3-diisopropylbenzene]
α1β2γ2 GABAA receptors
  activity on GABAA receptor: did not modulate or disrupt propofol potentiation; also recorded: no activity
[1]
  immobilization: did not cause immobilization
GABAA receptor subunits
  protection of GABAA receptor α and β subunits from AziPm-click (1) capture: unable to protect

## CNC1(c2ccccc2Cl)CCCCC1=O (stereo not shown) [ketamine]
[2]
  fluorescent labeling of synaptosomal proteins by AziPm-click (1) in presence of protecting ligand: no changes in fluorescence intensity

— publication PMC5034043 (The Journal of Biological Chemistry, 2016)
